Data as given in patent US20260034044A1, “A PRESERVATIVE COMPOSITION” (AnalytiCon Discovery - Zweigniederlassung der BRAIN Biotech …, priority 2022, published 2026).
In brackets after ≈: the same amount, converted by molar mass.

Assays:
Assay type in all cases: cell-based
[1] = tested on: Gluconacetobacter liquefaciens DSM 5603; assay: Antimicrobial activity (MIC); conditions: DSM5603, potato dextrose broth pH 3.8, visual evaluation, read-out: Minimal Inhibitory Concentration (MIC)
[2] = tested on: Bacillus licheniformis DSM 13; assay: Antimicrobial activity (MIC); conditions: DSM13, potato dextrose broth pH 3.8, visual evaluation, read-out: Minimal Inhibitory Concentration (MIC)
[3] = tested on: Streptococcus mutans DSM 20523; assay: Antimicrobial activity (MIC); conditions: DSM20523, potato dextrose broth pH 3.8, visual evaluation, read-out: Minimal Inhibitory Concentration (MIC)
[4] = tested on: Lactobacillus paracasei ssp. paracasei DSM 46331; assay: Antimicrobial activity (MIC); conditions: Lacticaseibacillus paracasei, DSM46331, potato dextrose broth pH 3.8, visual evaluation, read-out: Minimal Inhibitory Concentration (MIC)
[5] = tested on: Pseudomonas aeruginosa DSM 1117; assay: Antimicrobial activity (MIC); conditions: DSM1117, potato dextrose broth pH 3.8, visual evaluation, read-out: Minimal Inhibitory Concentration (MIC)
[6] = tested on: Campylobacter jejuni DSM 4688; assay: Antimicrobial activity (MIC); conditions: DSM4688, potato dextrose broth pH 3.8, visual evaluation, read-out: Minimal Inhibitory Concentration (MIC)
[7] = tested on: Zygosaccharomyces bailii DSM 70834; assay: Antimicrobial activity (MIC); conditions: DSM70834, potato dextrose broth pH 3.8, visual evaluation, read-out: Minimal Inhibitory Concentration (MIC)
[8] = tested on: Fusobacterium nucleatum subsp. vincentii DSM 19507; assay: Antimicrobial activity (MIC); conditions: DSM19507, potato dextrose broth pH 3.8, visual evaluation, read-out: Minimal Inhibitory Concentration (MIC)
[9] = tested on: Corynebacterium xerosis DSM 20743; assay: Antimicrobial activity (MIC); conditions: DSM20743, potato dextrose broth pH 3.8, visual evaluation, read-out: Minimal Inhibitory Concentration (MIC)
[10] = tested on: Leuconostoc lactis DSM 20202; assay: Antimicrobial activity (MIC); conditions: DSM20202, potato dextrose broth pH 3.8, visual evaluation, read-out: Minimal Inhibitory Concentration (MIC)
[11] = tested on: Phanerochaete chrysosporium DSM 1556; assay: Antimicrobial activity (MIC); conditions: Phanerodontia chrysosporium, DSM1556, potato dextrose broth pH 3.8, visual evaluation, read-out: Minimal Inhibitory Concentration (MIC)
[12] = tested on: Pasteurella multocida ssp. multocida DSM 16031; assay: Antimicrobial activity (MIC); conditions: DSM16031, potato dextrose broth pH 3.8, visual evaluation, read-out: Minimal Inhibitory Concentration (MIC)
[13] = tested on: Enterococcus faecalis ATCC 7080; assay: Antimicrobial activity (MIC); conditions: ATCC7080, potato dextrose broth pH 3.8, visual evaluation, read-out: Minimal Inhibitory Concentration (MIC)
[14] = tested on: Salmonella enterica ssp. enterica Ser. typhimurium DSM 17058; assay: Antimicrobial activity (MIC); conditions: potato dextrose broth pH 3.8, visual evaluation, read-out: Minimal Inhibitory Concentration (MIC)
[15] = tested on: Alternaria alternata DSM 12633; assay: Antimicrobial activity (MIC); conditions: DSM12633, potato dextrose broth pH 3.8, visual evaluation, read-out: Minimal Inhibitory Concentration (MIC)
[16] = tested on: Lactobacillus plantarum ssp. plantarum DSM 20174; assay: Antimicrobial activity (MIC); conditions: Lactiplantibacillus plantarum, DSM20174, potato dextrose broth pH 3.8, visual evaluation, read-out: Minimal Inhibitory Concentration (MIC)
[17] = tested on: Zygosaccharomyces rouxii DSM 7525; assay: Antimicrobial activity (MIC); conditions: DSM7525, potato dextrose broth pH 3.8, visual evaluation, read-out: Minimal Inhibitory Concentration (MIC)
[18] = tested on: Byssochlamys fulva DSM 1808; assay: Antimicrobial activity (MIC); conditions: Paecilomyces fulvus, DSM1808, potato dextrose broth pH 3.8, visual evaluation, read-out: Minimal Inhibitory Concentration (MIC)
[19] = tested on: Alicyclobacillus acidoterrestris DSM 2498; assay: Antimicrobial activity (MIC); conditions: DSM2498, potato dextrose broth pH 3.8, visual evaluation, read-out: Minimal Inhibitory Concentration (MIC)
[20] = tested on: Saccharomyces cerevisiae DSM 2548; assay: Antimicrobial activity (MIC); conditions: DSM2548, potato dextrose broth pH 3.8, visual evaluation, read-out: Minimal Inhibitory Concentration (MIC)
[21] = tested on: Aspergillus brasiliensis DSM 1988; assay: Antimicrobial activity (MIC); conditions: DSM1988, potato dextrose broth pH 3.8, visual evaluation, read-out: Minimal Inhibitory Concentration (MIC)
[22] = tested on: Leuconostoc mesenteroides ssp. mesenteroides DSM 20343; assay: Antimicrobial activity (MIC); conditions: DSM20343, potato dextrose broth pH 3.8, visual evaluation, read-out: Minimal Inhibitory Concentration (MIC)
[23] = tested on: Brettanomyces naardenensis CBS 6115; assay: Antimicrobial activity (MIC); conditions: CBS6115, potato dextrose broth pH 3.8, visual evaluation, read-out: Minimal Inhibitory Concentration (MIC)
[24] = tested on: Staphylococcus aureus DSM 2569; assay: Antimicrobial activity (MIC); conditions: DSM2569, potato dextrose broth pH 3.8, visual evaluation, read-out: Minimal Inhibitory Concentration (MIC)
Bacillus cereus DSM4490 = assay: Antimicrobial activity (MIC); conditions: potato dextrose broth pH 3.8, visual evaluation, read-out: Minimal Inhibitory Concentration (MIC)
[25] = tested on: Clostridium perfringens DSM 756; assay: microbe, parasite or virus in culture; conditions: DSM756, pH 3.8, read-out: Minimal Inhibitory Concentration (MIC)
[26] = tested on: Candida parapsilosis ATCC 20384; assay: Antimicrobial activity (MIC); conditions: Lodderomyces parapsilosis, ATCC20384, potato dextrose broth pH 3.8, visual evaluation, read-out: Minimal Inhibitory Concentration (MIC)
[27] = tested on: Actinomyces viscosus DSM43798; assay: Antimicrobial activity (MIC); conditions: potato dextrose broth pH 3.8, visual evaluation, read-out: Minimal Inhibitory Concentration (MIC)

| SMILES | MIC [1] | MIC [2] | MIC [3] | MIC [4] | MIC [5] | MIC [6] | MIC [7] | MIC [8] | MIC [9] | MIC [10] | MIC [11] | MIC [12] | MIC [13] | MIC [14] | MIC [15] | MIC [16] | MIC [17] | MIC [18] | MIC [19] | MIC [20] | other results |
| --- | --- | --- | --- | --- | --- | --- | --- | --- | --- | --- | --- | --- | --- | --- | --- | --- | --- | --- | --- | --- | --- |
| C[C@H]1CC[C@@]2(OC1)O[C@H]1CC3C4CC[C@H]5C[C@@H](O[C@@H]6O[C@H](CO)[C@H](O[C@@H]7O[C@H](CO)[C@@H](O)[C@H](O[C@@H]8OC[C@@H](O)[C@H](O)[C@H]8O)[C@H]7O[C@@H]7O[C@H](CO)[C@@H](O)[C@H](O)[C@H]7O)[C@H](O)[C@H]6O)[C@H](O)C[C@]5(C)C4=CC(=O)[C@]3(C)[C@H]1[C@@H]2C (stereo partly shown) [A] | 140 µg/mL (≈ 132 µM) | > 80 µg/mL | > 80 µg/mL | > 80 µg/mL | > 80 µg/mL | > 80 µg/mL | > 80 µg/mL | 80 µg/mL (≈ 75.2 µM) | > 80 µg/mL | 80 µg/mL (≈ 75.2 µM) | > 80 µg/mL | > 80 µg/mL | > 80 µg/mL | > 80 µg/mL | > 80 µg/mL | 40 µg/mL (≈ 37.6 µM) | 500 µg/mL (≈ 470 µM) | > 80 µg/mL | 40 µg/mL (≈ 37.6 µM) | > 80 µg/mL | MIC [21]: > 80 µg/mL; MIC [22]: > 80 µg/mL; MIC [23]: > 80 µg/mL; MIC [24]: > 80 µg/mL; MIC (Bacillus cereus DSM4490): > 80 µg/mL; MIC [25]: > 80 µg/mL; MIC [26]: > 80 µg/mL; MIC [27]: > 80 µg/mL |
| C[C@@H]1CC[C@@]2(OC1)O[C@H]1CC3C4CC=C5CC(O[C@@H]6O[C@H](CO)[C@@H](O[C@@H]7O[C@@H](C)[C@H](O[C@@H]8O[C@@H](C)[C@H](O)[C@@H](O)[C@H]8O)[C@@H](O)[C@H]7O)[C@H](O)[C@H]6O[C@@H]6O[C@@H](C)[C@H](O)[C@@H](O)[C@H]6O)CC[C@]5(C)C4CC[C@]3(C)[C@@]1(O)[C@@H]2C (stereo partly shown) [B] | 40 µg/mL (≈ 38.8 µM) | > 80 µg/mL | > 80 µg/mL | > 80 µg/mL | > 80 µg/mL | > 80 µg/mL | > 80 µg/mL | > 80 µg/mL | > 80 µg/mL | > 80 µg/mL | > 80 µg/mL | > 80 µg/mL | > 80 µg/mL | > 80 µg/mL | > 80 µg/mL | 400 µg/mL (≈ 388 µM) | 500 µg/mL (≈ 485 µM) | > 80 µg/mL | 140 µg/mL (≈ 136 µM) | > 80 µg/mL | MIC [21]: > 80 µg/mL; MIC [22]: > 80 µg/mL; MIC [23]: > 80 µg/mL; MIC [24]: > 80 µg/mL; MIC (Bacillus cereus DSM4490): > 80 µg/mL; MIC [25]: > 80 µg/mL; MIC [26]: > 80 µg/mL; MIC [27]: > 80 µg/mL |
| CC1CC[C@@]2(OC1)O[C@H]1CC3C4CC=C5C[C@@H](O[C@@H]6O[C@H](CO)[C@@H](O[C@@H]7O[C@@H](C)[C@H](O)[C@@H](O)[C@H]7O)[C@H](O)[C@H]6O[C@@H]6O[C@@H](C)[C@H](O)[C@@H](O)[C@H]6O)CC[C@]5(C)C4CC[C@]3(C)[C@@]1(O)[C@@H]2C (stereo partly shown) [C] | 40 µg/mL (≈ 45.2 µM) | > 80 µg/mL | > 80 µg/mL | > 80 µg/mL | > 80 µg/mL | > 80 µg/mL | > 80 µg/mL | > 80 µg/mL | > 80 µg/mL | > 80 µg/mL | > 80 µg/mL | > 80 µg/mL | > 80 µg/mL | > 80 µg/mL | > 80 µg/mL | 400 µg/mL (≈ 452 µM) | 500 µg/mL (≈ 565 µM) | > 80 µg/mL | 80 µg/mL (≈ 90.4 µM) | > 80 µg/mL | MIC [21]: > 80 µg/mL; MIC [22]: > 80 µg/mL; MIC [23]: > 80 µg/mL; MIC [24]: > 80 µg/mL; MIC (Bacillus cereus DSM4490): > 80 µg/mL; MIC [25]: > 80 µg/mL; MIC [26]: > 80 µg/mL; MIC [27]: > 80 µg/mL |
| C[C@H]1CC[C@@]2(OC1)O[C@H]1CC3C4CC[C@H]5C[C@@H](O[C@@H]6O[C@H](CO)[C@H](O[C@@H]7O[C@H](CO)[C@@H](O)[C@H](O)[C@H]7O[C@@H]7O[C@H](CO)[C@@H](O)[C@H](O)[C@H]7O)[C@H](O)[C@H]6O)[C@H](O)C[C@]5(C)C4=CC(=O)[C@]3(C)[C@H]1[C@@H]2C (stereo partly shown) [D] | 140 µg/mL (≈ 150 µM) | > 80 µg/mL | > 80 µg/mL | > 80 µg/mL | > 80 µg/mL | > 80 µg/mL | > 80 µg/mL | 80 µg/mL (≈ 85.9 µM) | > 80 µg/mL | 80 µg/mL (≈ 85.9 µM) | > 80 µg/mL | > 80 µg/mL | > 80 µg/mL | > 80 µg/mL | > 80 µg/mL | 40 µg/mL (≈ 43 µM) | 500 µg/mL (≈ 537 µM) | > 80 µg/mL | 40 µg/mL (≈ 43 µM) | > 80 µg/mL | MIC [21]: > 80 µg/mL; MIC [22]: > 80 µg/mL; MIC [23]: > 80 µg/mL; MIC [24]: > 80 µg/mL; MIC (Bacillus cereus DSM4490): > 80 µg/mL; MIC [25]: > 80 µg/mL; MIC [26]: > 80 µg/mL; MIC [27]: > 80 µg/mL |
